The term IC50 denotes the concentration needed to halve the response being measured.

Molecules are shown by their SMILES.

The target in the assay is Human recombinant carboxy-terminal his-tagged LDHA (amino acids 2-332) (Homo sapiens, UniProt P00338). Nature of the assay: LDHA enzyme inhibition assay (NADH fluorescence). Particulars: LDHA IC50 (μM), 1 nM LDHA, NADH and pyruvate, stereochemistry of tested sample given.
Take `O=C1CC(c2ccsc2)(c2cccc(Oc3ccc(F)c(Cl)c3)n2)NC(=O)C1Sc1ccccc1Cl` (single isomer, unassigned) [Example 112, 6-(6-(3-chloro-4-fluoro-phenoxy)pyridin-2-yl)-3-((2-chlorophenyl)thio)-6-(thiophen-3-yl) piperidine-2,4-dione]: the IC50 came to 0.01 µM.

`O=C1CC(c2ccsc2)(c2cccc(OCCC3CCCC3)n2)NC(=O)C1Sc1ccccc1Cl` (single isomer, unassigned) [Example 113, 3-((2-chlorophenyl)thio)-6-(6-(2-cyclopentyl-ethoxy)pyridin-2-yl)-6-(thiophen-3-yl)piperidine-2,4-dione]: the IC50 came out at 0.014 µM.

For `CC(C)(O)CCCOc1cccc(C2(c3ccsc3)CC(=O)C(Sc3ccccc3Cl)C(=O)N2)n1` (single isomer, unassigned) [Example 114, 3-((2-chlorophenyl)thio)-6-(6-((4-hydroxy-4-methyl-pentyl)oxy)pyridin-2-yl)-6-(thiophen-3-yl) piperidine-2,4-dione], the concentration for half-maximal inhibition (IC50) is 0.053 µM.

Turning to `O=C1CC(c2ccsc2)(c2cccc(Oc3cccc(C(F)F)c3)n2)NC(=O)C1Sc1ccccc1Cl` (single isomer, unassigned) [Example 115, 3-(2-chlorophenyl)sulfanyl-6-[6-[3-(difluoromethyl)phenoxy]-2-pyridyl]-6-(3-thienyl)piperidine-2,4-dione], the IC50 came out at 0.031 µM.

Consider `O=C1CC(c2ccsc2)(c2cccc(Oc3ccccc3Br)n2)NC(=O)C1Sc1ccccc1Cl` (single isomer, unassigned) [Example 116, 6-[6-(2-bromophenoxy)-2-pyridyl]-3-(2-chlorophenyl) sulfanyl-6-(3-thienyl) piperidine-2,4-dione], for which the IC50 was determined as 0.376 µM.

For `O=C1CC(c2ccsc2)(c2cccc(Oc3ccc4ncccc4c3)n2)NC(=O)C1Sc1ccccc1Cl` (single isomer, unassigned) [Example 117, 3-(2-chlorophenyl)sulfanyl-6-[6-(6-quinolyloxy)-2-pyridyl]-6-(3-thienyl) piperidine-2,4-dione], the IC50 was 0.076 µM.

For `O=C1CC(c2ccsc2)(c2cccc(Cc3ccccc3)n2)NC(=O)C1Sc1ccccc1Cl` (single isomer, unassigned) [Example 118, 6-(6-benzylpyridin-2-yl)-3-((2-chloropnenyl)thio)-6-(thiophen-3-yl) piperidine-2,4-dione], the IC50 amounted to 0.622 µM.

With `CC(C)CCOc1cccc(C2(c3ccsc3)CC(=O)C(Sc3ccccc3Cl)C(=O)N2)n1` (single isomer, unassigned) [Example 119, 3-(2-chlorophenyl)sulfanyl-6-(6-isopentyloxy-2-pyridyl)-6-(3-thienyl) piperidine-2,4-dione], the IC50 came to 0.293 µM.

For the compound `O=C1CC(c2ccsc2)(c2cccc(Oc3ccc4ncccc4c3)n2)NC(=O)C1Sc1ccccc1Cl` (single isomer, unassigned) [Example 120, 3-(2-chlorophenyl)sulfanyl-6-[6-(6-quinolyloxy)-2-pyridyl]-6-(3-thienyl) piperidine-2,4-dione], the IC50 was determined as 0.016 µM.

Turning to `O=C1CC(c2ccsc2)(c2cccc(OCCCC(F)(F)F)n2)NC(=O)C1Sc1ccccc1Cl` (single isomer, unassigned) [Example 121, 3-(2-chlorophenyl)sulfanyl-6-(3-thienyl)-6-[6-(4,4,4-trifluorobutoxy)-2-pyridyl]piperidine-2,4-dione], the IC50 came to 0.008 µM.

`O=C1CC(c2ccsc2)(c2cccc(Oc3ccc(F)c(Br)c3)n2)NC(=O)C1Sc1ccccc1Cl` (single isomer, unassigned) [Example 122, 6-[6-(3-bromo-4-fluoro-phenoxy)-2-pyridyl]-3-(2-chlorophenyl)sulfanyl-6-(3-thienyl)piperidine-2,4-dione]: the IC50 was 0.022 µM.

Turning to `CC(C)CCOc1cccc(C2(c3ccsc3)CC(=O)C(Sc3ccccc3Cl)C(=O)N2)n1` (single isomer, unassigned) [Example 124, 3-((2-chlorophenyl)thio)-6-(6-(isopentyloxy)pyridin-2-yl)-6-(thiophen-3-yl)piperidine-2,4-dione], the IC50 stood at 0.003 µM.

As for `O=C1CC(c2ccsc2)(c2cccc(OCCC3CCCC3)n2)NC(=O)C1Sc1ccccc1Cl` (single isomer, unassigned) [Example 125, 3-((2-chlorophenyl)thio)-6-(6-(2-cyclopentyl-ethoxy)pyridin-2-yl)-6-(thiophen-3-yl) piperidine-2,4-dione], the IC50 was 0.003 µM.

With `CC(C)(O)CCCOc1cccc(C2(c3ccsc3)CC(=O)C(Sc3ccccc3Cl)C(=O)N2)n1` (single isomer, unassigned) [Example 126, 3-(2-chlorophenyl)sulfanyl-6-[6-(4-hydroxy-4-methyl-pentoxy)-2-pyridyl]-6-(3-thienyl) piperidine-2,4-dione], the IC50 turned out to be 0.238 µM.

For the compound `O=C1CC(c2ccsc2)(c2cccc(Oc3cccc(C(F)F)c3)n2)NC(=O)C1Sc1ccccc1Cl` (single isomer, unassigned) [Example 127, 3-(2-chlorophenyl)sulfanyl-6-[6-[3-(difluoromethyl)phenoxy]-2-pyridyl]-6-(3-thienyl)piperidine-2,4-dione], the IC50 turned out to be 0.008 µM.

In the case of `O=C1CC(c2ccsc2)(c2cccc(Oc3cccc4ncccc34)n2)NC(=O)C1Sc1ccccc1Cl` (single isomer, unassigned) [Example 128, 3-(2-chlorophenyl)sulfanyl-6-[6-(5-quinolyloxy)-2-pyridyl]-6-(3-thienyl) piperidine-2,4-dione], the IC50 was found to be 0.024 µM.

As to `O=C1CC(c2ccsc2)(c2cccc(Cc3cc(F)cc(F)c3)n2)NC(=O)C1Sc1ccccc1Cl` (single isomer, unassigned) [Example 129, 3-((2-chlorophenyl)thio)-6-(6-(3,5-difluorobenzyl)pyridin-2-yl)-6-(thiophen-3-yl)piperidine-2,4-dione], the IC50 was determined as 0.02 µM.

Consider `O=C1CC(c2ccsc2)(c2cccc(OCCC3CCC3)n2)NC(=O)C1Sc1ccccc1Cl` (single isomer, unassigned) [Example 132, 3-((2-chlorophenyl)thio)-6-(6-(2-cyclobutyl-ethoxy)pyridin-2-yl)-6-(thiophen-3-yl)piperidine-2,4-dione], for which the IC50 stood at 0.009 µM.

`CC(C)CCOc1cccc(C2(c3ccsc3)CC(=O)C(Sc3ccccc3Cl)C(=O)N2)n1` (single isomer, unassigned) [Example 133, 3-(2-chlorophenyl)sulfanyl-6-(6-isopentyloxy-2-pyridyl)-6-(3-thienyl) piperidine-2,4-dione]: the IC50 turned out to be 0.089 µM.

Turning to `O=C1CC(c2ccsc2)(c2cccc(OCCC3CCCC3)n2)NC(=O)C1Sc1ccccc1Cl` (single isomer, unassigned) [Example 134, 3-(2-chlorophenyl)sulfanyl-6-[6-(2-cyclopentyl-ethoxy)-2-pyridyl]-6-(3-thienyl)piperidine-2,4-dione], the IC50 came out at 0.008 µM.

Regarding `CC(C)(O)CCCOc1cccc(C2(c3ccsc3)CC(=O)C(Sc3ccccc3Cl)C(=O)N2)n1` (single isomer, unassigned) [Example 135, 3-(2-chlorophenyl)sulfanyl-6-[6-(4-hydroxy-4-methyl-pentoxy)-2-pyridyl]-6-(3-thienyl) piperidine-2,4-dione], the IC50 amounted to 0.04 µM.

Values taken from patent US20170001990A1 (Genentech, Inc., priority 2014, published 2017).
